From ChEMBL document CHEMBL4007391, “Tackling Fungal Resistance by Biofilm Inhibitors” (J Med Chem, 2017)
In brackets after ≈: the same amount, converted by molar mass. Where a name gives a salt, the structure may show the parent alone. Blank lines part the entries; values can stand above or below the molecule they belong to.

Columns and labels:
[1] = test system: Candida albicans; assay: Antibiofilm activity against Candida albicans SC5314 after 24 hrs by Cell-Titer Blue assay; type: functional
[2] = test system: Candida albicans; assay: Antibiofilm activity against Candida albicans CAF2-1 after 48 hrs by Alamar blue assay; type: functional; conditions: CAF2-1, 48 h
[3] = test system: Candida albicans; assay: Antibiofilm activity against fluconazole-resistant Candida albicans 29E clinical isolates after 48 hrs by Alamar blue assay; type: functional
[4] = test system: Candida albicans; assay: Antibiofilm activity against Candida albicans SC5314 after 48 hrs by Alamar blue assay; type: functional; conditions: SC5314, 48 h
[5] = Cytotoxicity against human HepG2 assessed as reduction in cell viability after 24 hrs by CellTiter-Glo luminescent assay; type: cell-based; conditions: HepG2 cells
[6] = test system: Candida albicans; assay: Antibiofilm activity against Candida albicans SC5314 after 24 hrs by XTT assay; type: functional; conditions: SC5314, 24 h
[7] = test system: Trichophyton mentagrophytes; assay: Antifungal activity against Trichophyton mentagrophytes KCTC 6077 clinical isolates after 7 days by two fold serial dilution method; type: functional; conditions: KCTC 6077, 168 h
[8] = test system: Cryptococcus neoformans; assay: Antifungal activity against Cryptococcus neoformans KCTC 7224 clinical isolates after 7 days by two fold serial dilution method; type: functional; conditions: KCTC 7224, 168 h
[9] = test system: Candida albicans; assay: Antifungal activity against Candida albicans KCTC 1940 clinical isolates after 7 days by two fold serial dilution method; type: functional; conditions: KCTC 1940, 168 h
[10] = test system: Candida albicans; assay: Antibiofilm activity against Candida albicans SC5314 after 24 hrs in presence of miconazole by Cell-Titer Blue assay; type: functional
[11] = test system: Candida albicans; assay: Antibiofilm activity against Candida albicans CAIF-100 after 24 hrs by Cell-Titer Blue assay; type: functional
[12] = test system: Candida albicans; assay: Antibiofilm activity against Candida albicans SC5314 clinical isolates after 24 hrs by XTT assay; type: functional; conditions: Candida albicans, SC5314, 24 h
[13] = test system: Candida albicans; assay: Antibiofilm activity against Candida albicans DAY185 after 24 hrs by XTT assay; type: functional
[14] = test system: Candida albicans; assay: Antifungal activity against Candida albicans DAY185 by CLSI method; type: functional
[15] = test system: Candida albicans; assay: Antifungal activity against Candida albicans by broth dilution assay; type: functional
[16] = test system: Candida albicans; assay: Inhibition of biofilm formation of fluconazole-resistant Candida albicans at 2 to 4 ug/ml after 24 hrs by XTT assay; type: functional
[17] = test system: Candida albicans; assay: Antifungal activity against fluconazole-resistant Candida albicans after 48 hrs by broth microdilution assay; type: functional
[18] = test system: Candida albicans; assay: Disruption of biofilm of fluconazole-resistant Candida albicans at 8 to 32 ug/ml after 24 hrs by XTT assay; type: functional
[19] = test system: Candida; assay: Antifungal activity against Candida after 48 hrs by broth microdilution assay; type: functional
[20] = test system: Candida; assay: Antifungal activity against drug-resistant Candida spp. clinical isolates after 48 hrs by broth microdilution assay; type: functional

Compound: Oc1c(Br)cc(Br)c2cccnc12 [BROXYQUINOLINE]
MBEC2 [1]: 1.2 µM

Compound: CCN1/C(=C/c2ccc3cc(C)ccc3[n+]2CC)Sc2cc(C)c(C)cc21
IC50 [2]: 231 to 268 µM
IC50 [3]: 231 to 268 µM
IC50 [4]: 231 to 268 µM

Compound: CC(C)c1ccc(CN2CCCC3(CCN(Cc4cccnc4)C3)C2=O)cc1 (stereo not given)
CC50 at 24 h [5]: 62.7 to 104 µM
IC50 [6]: 4.59 µM

MIC [7]: 25 µg/mL (≈ 93.9 µM)
MIC [8]: 25 µg/mL (≈ 93.9 µM)
MIC [9]: 16 to 32 µg/mL (≈ 60.1 to 120 µM)
Compound: C=CCc1ccc(O)c(-c2cc(CC=C)ccc2O)c1 [MAGNOLOL]

Compound: CO[C@H]1O[C@@H]2O[C@@]3(C)CC[C@H]4[C@H](C)CC[C@@H]([C@H]1C)[C@@]24OO3
fractional inhibitory concentration index (FICI) [10]: 0.112

Compound: CN(C)CC/C=C1/c2ccccc2Sc2ccc(Cl)cc21.Cl [CHLORPROTHIXENE HYDROCHLORIDE]
MBIC50 [11]: 17 µM

Compound: CCc1oc2ccccc2c1C(=O)c1cc(Br)c(O)c(Br)c1 [BENZBROMARONE]
IC50 [12]: 2 µM

Compound: CC1OC(CC(=O)O)Cc2c(O)c3c(c(O)c21)C(=O)C=C(C1=CC(=O)c2c(O)c4c(c(O)c2C1=O)CC(CC(=O)O)OC4C)C3=O (stereo not given)
CC50 at 24 h [5]: 96.1 µM
IC50 [6]: 3.31 µM

Compound: N=C(NCCCCCCNC(=N)NC(=N)Nc1ccc(Cl)cc1)NC(=N)Nc1ccc(Cl)cc1 [CHLORHEXIDINE]
IC50 [12]: 21.8 µM

Compound: CN(C)c1ccc(C(=C2C=CC(=[N+](C)C)C=C2)c2ccc(N(C)C)cc2)cc1.[Cl-] [GENTIAN VIOLET]
MBEC2 [1]: 1.5 µM

Compound: C[C@H]1[C@H](OC(=O)CCC(=O)O)O[C@@H]2O[C@@]3(C)CC[C@H]4[C@H](C)CC[C@@H]1[C@@]24OO3 [ARTESUNATE]
fractional inhibitory concentration index (FICI) [10]: <0.069

MIC [7]: 25 µg/mL (≈ 93.9 µM)
MIC [8]: 25 µg/mL (≈ 93.9 µM)
MIC [9]: 16 to 32 µg/mL (≈ 60.1 to 120 µM)
Compound: C=CCc1ccc(O)c(-c2ccc(O)c(CC=C)c2)c1 [HONOKIOL]

Compound: Oc1c(Cl)cc(Cl)c(Cl)c1Cc1c(O)c(Cl)cc(Cl)c1Cl [HEXACHLOROPHENE]
MBEC2 [1]: 9.3 µM
IC50 [12]: 5.1 µM

MIC [14]: > 200 µM
Compound: CCCCCCCCCC(=O)[C@@H]1C(=O)N[C@@H](CC(C)C)C(=O)N[C@H](C)C(=O)N2CCC[C@H]2C(=O)N[C@@H](C(C)C)C(=O)N[C@H]2CS[C@H]1CNC2=O
IC50 [13]: 3.4 µM

Compound: CN(C)CCOc1ccc(/C(=C(/CCCl)c2ccccc2)c2ccccc2)cc1.O=C(O)CC(O)(CC(=O)O)C(=O)O [TOREMIFENE CITRATE]
MBIC50 [11]: 19.5 µM

MIC80 [15]: 32 µg/mL (≈ 125 µM)
Compound: COc1cc(/C=C/c2ccc(O)cc2)cc(OC)c1 [PTEROSTILBENE]

Compound: C[C@H]1[C@@H](O)O[C@@H]2O[C@@]3(C)CC[C@H]4[C@H](C)CC[C@@H]1[C@@]24OO3 [ARTENIMOL]
fractional inhibitory concentration index (FICI) [10]: 0.145

Compound: CC(C)c1ccc(CN2CCCC3(CCN(CC4CCSCC4)C3)C2=O)cc1 (stereo not given)
CC50 at 24 h [5]: 62.7 to 104 µM
IC50 [6]: 3.36 µM

Compound: CCCCCCCCCCCCCCCCOP(=O)([O-])OCC[N+](C)(C)C [MILTEFOSINE]
inhibition (INH) [16]: 90%
MIC [17]: 0.5 to 2 µg/mL (≈ 1.23 to 4.91 µM)
inhibition (INH) [18]: >90%

Compound: C#CCN(C)CCCOc1ccc(Cl)cc1Cl.Cl [CLORGYLINE HYDROCHLORIDE]
MBIC50 [11]: 24 µM

MIC [14]: > 200 µM
Compound: CCCCCCCCCC(=O)[C@@H]1C(=O)N[C@@H](CC(C)C)C(=O)N[C@H](C)C(=O)N2CCC[C@H]2C(=O)N[C@@H]([C@@H](C)CC)C(=O)N[C@H]2CS[C@H]1CNC2=O
IC50 [13]: 9.1 µM

Compound: CCN(CC)CCOC(=O)C1(C2CCCCC2)CCCCC1.Cl [DICYCLOMINE HYDROCHLORIDE]
MBIC50 [11]: 60 µM

Compound: CN(C)c1ccc(/C=C/c2cc(C(C)(C)C)[o+]c(C(C)(C)C)c2)cc1.[O-][Cl+3]([O-])([O-])[O-]
MIC [19]: 0.2 to 6.25 µg/mL
MIC [20]: 0.5 to 1 µg/mL

Compound: CCCCC(CC)CNC(=N)NC(=N)NCCCCCCNC(=N)NC(=N)NCC(CC)CCCC (stereo not given) [ALEXIDINE DIHYDROCHLORIDE]
IC50 [12]: 5.4 µM

Compound: CCCCCCCCCCCCCCCC[N+](C)(C)CCN(Cc1ccc(OC)cc1)c1ncccn1 [THONZONIUM BROMIDE]
IC50 [12]: 13 µM
